In patent US12636298B2, “Composition with L-theanine and fructooligosaccharides for human memory enhancement” (HARKE Pharma GmbH, priority 2019, dated 2026):

Key:
[1] = test system: mice; experiment: Step-down passive avoidance test (MT-01 vs FOS and L-theanine); format: in vivo; settings: for Error count during testing phase: MT-01 both, control 2.33; for latency during the retention phase (FIG. 1c): comparison between groups
Description: (§1) Furthermore, to test the hypothesis that administration of M. officinalis FOS and L-theanine in a ratio of about 2:1 L-theanine:FOS synergistically enhance mice memory, we have performed a step-down passive avoidance test and a water maze test. This was employed to assess the effect of M. officinalis FOS and L-theanine individually on mice memory compared to their collective effect when administrated in combination in a ratio of about 2:1 L-theanine:FOS (MT-01) (FIG. 1).
We analysed the synergy between FOS and L-theanine in the formulation by calculating the coefficient of drug interaction (CDI), as shown in Table 1.

[2] = test system: mice; experiment: Water maze test (MT-01 vs FOS and L-theanine); format: in vivo; settings: for Error count during testing phase: MT-01 both, control 4.11
Experimental: as §1, with “1). Maze test was performed to further confirm the hypothesis. […] We analysed the synergy between FOS and L-theanine in the formulation by calculating the coefficient of drug interaction (CDI), as shown in Table 1.” for “1).”

[3] = test system: KumMing (KM) mice; experiment: Passive avoidance test (embodiment 1); format: in vivo, mouse
Description: The Passive Avoidance Test (Solomon and Wynne, 1954; Solomon and Turner, 1960) is a fear-aggravated task employed to evaluate learning and memory in rodent models. In this test, subjects learn to avoid an environment in which an aversive stimulus (such as a foot-shock) was previously delivered. The test chamber is divided into a light compartment and a dark compartment, with a gate between the two. Animals are allowed to explore both compartments on the first day. On the following day, they are given a mild foot shock in one of the compartments. Animals will learn to associate certain properties of the chamber with the foot shock. In order to test their learning and memory, the mice are then placed back in the compartment where no shock was delivered. Mice with normal learning and memory will avoid entering the chamber where they had previously been exposed to the shock. This is measured by recording the latency to cross through the gate between the compartments. “Learning” is the period where mice were trained in this test (Table 1 and 2). Mice were tested at 24 or 48 hours after learning and the results were recorded (“Test column” in Table 1 and 2). “Fade” indicates re-testing of mice 5 days after learning (“Fade column” Table 1 and 2). Error percentage indicates the percentage of mice that have been shocked during the test. Our research was undertaken with KumMing (KM) mice (Dai et al. 2012; Ma et al. 2013). In each test, 48 KM mice were separated into 4 groups, 12 mice per group. A negative-control group was also included in the test and mock treated. […] We subsequently, tested different doses of embodiment 1, 0.1, 0.2 or 0.3 g/kg of mouse body weight (bw) of embodiment 1, consisting of a combination of fructooligoscharide and L-theanine, in the passive avoidance test.

[4] = Low dose: L-theanine 66, FOS 33 mg/kg·bw
[5] = Medium dose: L-theanine 134, FOS 66 mg/kg·bw
[6] = doses g/kg·bw: Embodiment 1 0.01, L-Theanine 0.0067, Fructooligosaccharide 0.0033, 24 or 48 hours after learning
[7] = doses g/kg·bw: Embodiment 1 0.01, L-Theanine 0.0067, Fructooligosaccharide 0.0033, 5 days after learning
[8] = doses g/kg·bw: Embodiment 1 0.01, L-Theanine 0.0067, Fructooligosaccharide 0.0033, training period

## CCNC(=O)CC[C@H](N)C(=O)O [L-theanine]
[1]; [4]
  Error count during testing phase: 0.83
[1]; [5]
  Error count during testing phase: 1.00
[1]; high dose
  latency during the retention phase (FIG. 1c): higher latency
[1]; low dose
  latency during the retention phase (FIG. 1c): neither the FOS-only nor L-theanine-only group show any significant difference
[2]; High dose: L-theanine 200, FOS 100 mg/kg·bw
  Error count during testing phase: 2.41
[2]; [4]
  Error count during testing phase: 2.45
[2]; [5]
  Error count during testing phase: 2.95
[2]; all doses, compared to control group, p<0.05
  time to escape during the test (FIG. 1a): significantly (p<0.05) less time to escape
[2]; medium and high dose, between MT-01, L-theanine and FOS
  escape time during test: no significant differences
[3]; Table 1 doses, vs control
  impact on rodent memory in the mouse passive avoidance test: neither fructooligoscharide nor L-theanine alone have a positive impact on rodent memory
[3]; [6]
  Test Error Count: 1.22 ± 1.14
  Test Incubation period: 232.13 ± 70.71 s
[3]; [7]
  Fade Error Count: 1.40 ± 1.07
  Fade Incubation period: 267.80 ± 51.03 s
[3]; [8]
  Learning Error Count: 3.90 ± 1.52
  Learning Incubation period: 48.30 ± 10.71 s
